Test results: BindingDB's records for doi:10.7270/Q2X34VWJ (Nmmlsc, 2009)

The compounds below were run against Ras-related protein Rab-7a (Canis lupus familiaris, UniProt P18067) (assay: Rab7 GTP binding inhibitors, further analogs, SAR follow-up, biochemical, additional analogs, wildtype, multiplex bead flow cytometry (AID 2036)). Conditions: not given.
Chain of Ras-related protein Rab-7a (P18067 whole entry): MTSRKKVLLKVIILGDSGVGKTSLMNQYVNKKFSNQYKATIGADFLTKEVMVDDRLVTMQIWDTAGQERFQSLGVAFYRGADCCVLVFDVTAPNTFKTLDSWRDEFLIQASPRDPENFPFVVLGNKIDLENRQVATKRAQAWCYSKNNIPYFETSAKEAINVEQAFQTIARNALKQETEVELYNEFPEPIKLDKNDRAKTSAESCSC

SMILES	EC50
O=C1Nc2c(Cl)cccc2C1=C1Nc2ccccc2C1=O	0.024 µM
O=C1Nc2c(Br)cccc2C1=C1Nc2ccccc2C1=O	30 µM
O=C1Nc2c(F)cccc2C1=C1Nc2ccccc2C1=O	23.8 µM
O=C1NC(=O)/C(=C2/C(=O)Nc3ccccc32)N1	30 µM
O=C1Nc2ccc(Br)cc2C1=C1Nc2ccccc2C1=O	30 µM
O=C1Nc2ccccc2/C1=C1/Nc2ccccc2C1=O [2-[(3Z)-2-oxo-2,3-dihydro-1H-indol-3-ylidene]-2,3-dihydro-1H-indol-3-one]	30 µM
O=C1N=c2ccccc2=C1c1[nH]c2ccccc2c1NO [3-[3-(hydroxyamino)-1H-indol-2-yl]-2-indolone]	30 µM
O=C1N=c2ccc(Br)cc2=C1c1[nH]c2ccccc2c1NO [5-bromanyl-3-[3-(oxidanylamino)-1H-indol-2-yl]indol-2-one]	30 µM
O=C1N=c2c(Br)cccc2=C1c1[nH]c2ccccc2c1NO [7-bromanyl-3-[3-(oxidanylamino)-1H-indol-2-yl]indol-2-one]	30 µM
O=C1N=c2c(Cl)cccc2=C1c1[nH]c2ccccc2c1NO [7-chloro-3-[3-(hydroxyamino)-1H-indol-2-yl]-2-indolone]	30 µM

Results, then the compound that gave them:

EC50	SMILES
30 µM	O=C1N=c2c(F)cccc2=C1c1[nH]c2ccccc2c1NO [7-fluoro-3-[3-(hydroxyamino)-1H-indol-2-yl]-2-indolone]
13.4 µM	O=C1NC(=S)N/C1=C1\C(=O)Nc2ccccc21 [(3Z)-3-(5-oxo-2-sulfanylideneimidazolidin-4-ylidene)-1H-indol-2-one]
30 µM	C[C@@H](C(=O)O)c1cccc(Oc2ccccc2)c1 [calcium;2-(3-phenoxyphenyl)propanoic acid;hydrate]

Same assay, conditions: inactive by the depositor's call

SMILES	EC50
O=C1Nc2cccc(Br)c2/C1=C1/Cc2ccccc2C1=O	30 µM
COc1ccc(S(=O)(=O)n2c(N)c(C#N)c(-c3ccccc3)c2C(=O)c2ccc(Br)cc2)cc1	30 µM
O=[N+]([O-])c1ccc(C#Cc2ccccc2)cc1	30 µM
O=C(C#Cc1ccccc1)c1ccc(OC(F)(F)F)cc1	30 µM
COc1ccc(C(=O)C#Cc2ccccc2)cc1 [1-(4-methoxyphenyl)-3-phenyl-2-propyn-1-one]	30 µM
O=C(C#Cc1ccccc1)c1ccc([N+](=O)[O-])cc1 [1-(4-nitrophenyl)-3-phenyl-2-propyn-1-one]	30 µM
CC(C(=O)O)c1cccc(C(=O)c2ccccc2)c1 (stereo not given) [2-(3-benzoylphenyl)propanoic acid]	30 µM
COc1ccc2cc(CC(=O)O)ccc2c1 [2-(6-methoxynaphthalen-2-yl)ethanoic acid]	30 µM
CC(=O)Oc1ccccc1C(=O)O [2-(acetyloxy)benzoic acid]	30 µM
CCCCS(=O)(=O)n1c(N)c(C#N)c(-c2cc(OC)c(OC)c(OC)c2)c1C(=O)c1ccccc1 [2-amino-5-benzoyl-1-butylsulfonyl-4-(3,4,5-trimethoxyphenyl)-3-pyrrolecarbonitrile]	30 µM
COc1ccc(S(=O)(=O)n2c(N)c(C#N)c(-c3cncc(Br)c3)c2C(=O)c2ccccc2)cc1 [2-amino-5-benzoyl-4-(5-bromo-3-pyridinyl)-1-(4-methoxyphenyl)sulfonyl-3-pyrrolecarbonitrile]	8.24 µM
COc1ccc(-c2c(C#N)c(N)n(S(C)(=O)=O)c2C(=O)c2ccccc2)cc1Br [2-azanyl-4-(3-bromanyl-4-methoxy-phenyl)-1-methylsulfonyl-5-(phenylcarbonyl)pyrrole-3-carbonitrile]	30 µM
COc1cc(-c2c(C#N)c(N)n(S(=O)(=O)c3c(C(C)C)cc(C(C)C)cc3C(C)C)c2C(=O)c2ccccc2)cc(OC)c1OC [2-azanyl-5-(phenylcarbonyl)-4-(3,4,5-trimethoxyphenyl)-1-[2,4,6-tri(propan-2-yl)phenyl]sulfonyl-pyrrole-3-carbonitrile]	33.2 µM
O=C(C#Cc1ccccc1)c1cccnc1 [3-phenyl-1-pyridin-3-ylprop-2-yn-1-one]	30 µM
COC(=O)c1ccc(C(=O)C#Cc2ccccc2)cc1 [4-(1-oxo-3-phenylprop-2-ynyl)benzoic acid methyl ester]	30 µM
N#Cc1ccc(C(=O)C#Cc2ccccc2)cc1 [4-(3-phenylprop-2-ynoyl)benzenecarbonitrile]	30 µM

Results, then the compound that gave them:

EC50	SMILES
30 µM	O=C1Nc2c(Br)cccc2/C1=C1/Cc2ccccc2C1=O [(3E)-7-bromo-3-(3-oxo-1H-inden-2-ylidene)-1H-indol-2-one]
4.78 µM	CC(C)Cc1ccc([C@H](C)C(=O)O)cc1 [(S)-2-(4-Isobutyl-phenyl)-propionic acid]
30 µM	O=C1Nc2ccccc2/C1=C1/Cc2ccccc2C1=O [UNM-0000305763]
30 µM	N#Cc1c(-c2ccc(Cl)cc2)c(C(=O)c2ccccc2)n(S(=O)(=O)c2ccc([N+](=O)[O-])cc2)c1N [UNM-0000305780]
30 µM	COc1ccc(S(=O)(=O)n2c(N)c(C#N)c(-c3cc(Br)c(OC)c(OC)c3)c2C(=O)c2ccccc2)cc1 [UNM-0000305782]
30 µM	O=C(C#Cc1ccccc1)c1ccccc1[N+](=O)[O-] [UNM-0000306038]
30 µM	O=C(C#Cc1ccccc1)c1ccccc1 [UNM-0000306039]
30 µM	O=C(C#Cc1ccccc1)c1ccc(Cl)cc1 [UNM-0000306055]
30 µM	O=C(C#Cc1ccccc1)c1ccc(F)cc1 [UNM-0000306059]
30 µM	CC1=C(CC(=O)O)c2cc(F)ccc2/C1=C/c1ccc([S+](C)[O-])cc1 (stereo not given) [UNM-0000306136]
41.2 µM	CSc1ccc(/C=C2/C(C)=C(CC(=O)O)c3cc(F)ccc32)cc1 [{6-Fluoro-2-methyl-3-[1-(4-methylsulfanyl-phenyl)-meth-(E)-ylidene]-3H-inden-1-yl}-acetic acid]
